Patent publication US20100166781A1, “HAT ACETYLATION PROMOTERS AND USES OF COMPOSITIONS THEREOF IN PROMOTING IMMUNOGENICITY” (Tapimmune, Inc., priority 2008, published 2010)
Entries after “also recorded” stand apart in the source; their conditions may differ. Read-outs that look alike come from different tables or passages of the source.

Key:
TAP-1 promoter [1] = test: Chromatin immunoprecipitation with anti-RNA pol II antibody, real-time PCR of TAP-1 promoter; assay type: cell-based, murine
Method: (§1) As the low level of histone H3 acetylation in TAP-1 promoter seems to contribute to TAP-1 deficiency in carcinomas, a further investigation was conducted to determine whether treatment of TAP-deficient carcinoma cells with TSA would increase the TAP-1 expression in the cells. […] Relative RNA pol II or acetyl-histone H3 levels were determined as the ratio of copy numbers of the eluted TAP-1 promoter and copy numbers of the corresponding inputs. The smallest ratio was arbitrarily determined as 1. Columns, average of three to six experiments; bars, SEM. *P<0.05 compared with cells that expressed higher MHC class I in the same assay.

A9 tumour = test: A9 tumor growth in immunodeficient Rag1 mice; assay type: in vivo; details: TSA treatment
Method: A9 tumor growth was suppressed in C57B1/6 mice treated daily for 20 days with 500 μg/kg of TSA (black bars) as compared to those treated with DMSO vehicle control (white bars). However, TSA treatment had no affect on A9 tumour growth in Ragl^“7” mice.

TAP-2 = test: RT-PCR analysis of APM components: TAP-2; details: HPV-positive carcinoma cell lines, particularly TAP-deficient cells
[2] = test system: VSV-infected cancer cells; assay type: cell-based, murine; details: for enhancement of CTL killing / enhancement of levels of killing: treatment 24 hours prior to VSV infection; for enhancement of CTL killing: effector:target 22:1
LMP-2 = test: RT-PCR analysis of APM components: LMP-2; details: HPV-positive carcinoma cell lines, particularly TAP-deficient cells
A9 tumor = A9 tumor growth in C57BL/6 syngeneic mice; assay type: in vivo, C57BL/6 mice; details: A9 cells s.c., 500 μg/kg daily i.p. for 20 days from day 7, versus DMSO control
Method: A total of 3×10^5 cells of TC-1 or A9 in PBS were injected subcutaneously into seven-week-old female C57BL/6 syngeneic mice (Charles River, St. Constant, QC). Mice were assigned to 3 groups of 4 animals. TSA was dissolved in DMSO to a concentration of 0.2 mg/ml. Daily treatment with 50 ul TSA (500 μg/kg) or DMSO (vehicle control) was administered via intraperitoneal injection for 20 days, starting on day 7 after injection with tumor cells. Mice were weighed weekly, and their behavior and food intake were monitored throughout the course of the experiment. Tumors were measured 3 times a week and tumor volume was calculated using the formula: tumor volume=length×width×height×π/6. The study period was determined by the size of the tumors in the A9 group treated with DMSO vehicle control.
TC-1 and A9 cells were cultured in vitro and were passaged less than 8 times before 3×10^5 of each group of the cells were injected subcutaneously into 7 week-old female C57BL/6 syngeneic mice. Daily treatment with TSA or DMSO vehicle control began on day 7 after cells injection, as the animals started to grow palpable A9 tumors. […] No tumor was detected beyond 1 month after injection with less than 3×10^5 TC-1 tumor cells (data not shown).

TAP-1 promoter [3] = test: Luciferase assay in cells stably transfected with pTAP-1-luc construct; assay type: cell-based, murine
Excerpt: A plasmid containing an EGFP gene driven by the TAP-1 promoter (pTAP-1-EGFP) was constructed as described previously. A similar construct containing a luciferase gene driven by the TAP-1 promoter (pTAP-1-luc) was created by inserting the TAP-1 promoter between the Sac I and BgI II sites of pGL4.14[luc2/Hygro] vector (Promega, Madison, Wis.). Several truncated TAP-1 promoter constructs were also made by cloning its 5′-end truncations into pGL4.14[luc2/Hygro] vector. Primers were used for PCR amplifications of the full TAP-1 promoter and its truncations.
TC-1, D11, A9, PA and LMD cells were transfected with the TAP-1 promoter constructs or the promoterless pGL4.14[luc2/Hygro] vector using ExGen 500 in vitro Transfection Reagent (Fermentas). Transient transfectants were analyzed between 12-72 hours after transfection. To obtain stable transfectants, the transfected cells were selected for 3 weeks in the presence of the following concentrations of Hygromycin B (Sigma): 550 ng/ml for TC-1 cells, 250 ng/ml for D11, A9 and LMD cells, 200 ng/ml for PA cells.
Relative luciferase activity (RLA) in transient transfectants was assessed by dual luciferase assay (Promega) within 12-72 hours after transfection. RLA in stable transfectants (3 weeks-1 month post-transfection) was assessed by Bright-Glo luciferase assay (Promega), and determined by subtracting the results with corresponding values obtained from transfection with promoterless pGL4.14[luc2/Hygro] vector alone and by further normalizing the values with copy number of plasmids integrated into the genome of each stable transfectant.

surface H-2K^b = surface H-2K^b (Mus musculus, UniProt P01901); test: Flow cytometric analysis of surface H-2K^b expression; assay type: cell-based, murine
Sequence of surface H-2K^b (P01901 whole entry, looked up): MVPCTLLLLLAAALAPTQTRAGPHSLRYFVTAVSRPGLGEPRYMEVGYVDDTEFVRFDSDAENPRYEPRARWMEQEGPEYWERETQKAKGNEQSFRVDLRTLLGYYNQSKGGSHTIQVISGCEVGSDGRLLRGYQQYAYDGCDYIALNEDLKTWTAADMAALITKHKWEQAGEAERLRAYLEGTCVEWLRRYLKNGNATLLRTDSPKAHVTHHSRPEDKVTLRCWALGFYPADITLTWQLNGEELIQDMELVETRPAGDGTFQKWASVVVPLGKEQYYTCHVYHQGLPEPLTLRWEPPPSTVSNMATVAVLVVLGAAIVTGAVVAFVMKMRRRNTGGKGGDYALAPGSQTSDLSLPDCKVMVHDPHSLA
Method: Cells untreated (shaded areas) or treated with 100 ng/ml TSA (thick lines), or 50 ng/ml IFN-γ (thin lines), were stained with PE-conjugated anti-H-2K^bmAb. Data are representatives of three experiments.

tapasin = test: RT-PCR analysis of APM components: tapasin; details: HPV-positive carcinoma cell lines, particularly TAP-deficient cells
TAP-1 = test: RT-PCR and Western blot analysis of TAP-1 expression; assay type: cell-based, murine
Method: Fifty micrograms of proteins per sample were separated through 6% (p300, CBP and TAP-1) or 15% (β-actin and acetyl-histone H3) SDS-PAGE. Proteins were transferred to a nitrocellulose membrane (Bio-rad, Hercules, Calif.). Blots were blocked with 5% skim milk in PBS and incubated with appropriate Ab dilutions. […] Secondary Ab used was HRP-conjugated goat anti-rabbit secondary Ab (Jackson Immunoresearch Lab., West Grove, Pa.). For the loading controls, anti β-actin mouse monoclonal Ab (Sigma) was used, followed by HRP-conjugated goat anti-mouse secondary Ab (Pierce, Rockford, Ill.). Blots were developed using Lumi-light reagents (Pierce).
Western blot analysis of TAP-1 expression was performed using lysate of cells that were pre-treated with 20 to 200 ng/ml TSA for 24 to 48 hours, and representative data from cells treated with 100 ng/ml TSA for 24 hours (PA and LMD) or 48 hours (TC-1, D11 and A9) are shown in FIG. 4A.

TAP-1 promoter [4] = test: Chromatin immunoprecipitation with anti-acetyl-histone H3 antibody, real-time PCR of TAP-1 promoter; assay type: cell-based, murine
Method: as §1

TAP-1 promoter [5] = test: Chromatin immunoprecipitation with anti-CBP antibody, real-time PCR of 5'-end of TAP-1 promoter; details: LMD, D11 and A9 cells, IFN-γ treatment

CC(/C=C/C(=O)NO)=C\[C@@H](C)C(=O)c1ccc(N(C)C)cc1 [TSA, trichostatin A]
level of RNA pol II binding to TAP-1 promoter (TAP-1 promoter [1]; TSA treatment, TAP-deficient cells of HPV-positive and prostate carcinoma models): to similar levels as in TAP-expressing cells
recruitment of RNA pol II complex to the TAP-1 promoter (TAP-1 promoter [1]; TSA treatment, most cell lines, particularly TAP-deficient cells): enhanced
tumour growth (A9 tumour): no affect
expression of TAP-2 (TAP-2): up-regulation
enhancement of CTL killing ([2]; VSV-infected A9 cells): ~7 fold
enhancement of levels of killing ([2]; VSV-infected B16 cells): 20 fold
enhancement of levels of killing ([2]; VSV-infected CMT.64 cells): 5 fold
enhancement of CTL killing ([2]; VSV-infected D11 cells): ~6 fold
enhancement of CTL killing ([2]; VSV-infected TC-1 cells): approximately 1.4 fold
expression of LMP-2 (LMP-2): up-regulation
tumor growth (A9 tumor): suppressed; also recorded: slower
TAP-1 promoter activity (TAP-1 promoter [3]; HPV-positive carcinoma model, TAP-deficient cells): to similar levels as in TAP-expressing cells
TAP-1 promoter activity (luc expression) (TAP-1 promoter [3]; TAP-deficient cells stably transfected with pTAP-1-luc): increased significantly
TAP-1 promoter activity (TAP-1 promoter [3]; prostate carcinoma model, LMD cells): statistically significant improvement
increase of surface expression H-2K^b (surface H-2K^b; MHC class I-deficient cells, 100 ng/ml TSA): approximately 10 fold
surface H-2K^b levels (surface H-2K^b; PA and TC-1 cells (originally high surface H-2K)): remained the same
expression of tapasin (tapasin): up-regulation
Optimal dose for optimal induction of TAP-1 expression (TAP-1; 24 hours in LMD, CMT.64 and B16, 48 hours in D11 and A9): 100 ng/mL
expression of TAP-1 (TAP-1; RT-PCR and Western blot, 100 ng/ml for 24 h (PA, LMD) or 48 h (TC-1, D11, A9)): up-regulated
TAP-1 expression upon increasing the dose (TAP-1; Western blot, TAP-deficient cells, 20 to 200 ng/ml for 24 to 48 hours): increasing levels of TAP-1 expression
levels of acetyl-histone H3 in TAP-1 promoter (TAP-1 promoter [4]; TSA treatment, all cell lines tested): did not significantly alter

B1: IFN-γ: potent inducer of TAP-1 and surface MHC class I expression in cancer cells, used as positive control (protein, UniProt P01579 24-161, looked up)
Interferon gamma: QDPYVKEAENLKKYFNAGHSDVADNGTLFLGILKNWKEESDRKIMQSQIVSFYFKLFKNFKDDQSIQKSVETIKEDMNVKFFNSNKKKRDDFEKLTNYSVTDLNVQRKAIHELIQVMAELSPAAKTGKRKRSQMLFRG
level of RNA pol II in TAP-1 promoter (TAP-1 promoter [1]; IFN-γ treatment): increased
expression of TAP-2 (TAP-2): inducible
level of killing by CTL ([2]; all VSV-infected cell lines, IFN-γ treatment): maximal induction
expression of LMP-2 (LMP-2): inducible
surface H-2K^b expression (surface H-2K^b; all cell lines, 50 ng/ml IFN-γ): increased
level of acetyl-histone H3 in TAP-1 promoter (TAP-1 promoter [4]; IFN-γ treatment): increased
histone H3 acetylation in TAP-1 promoter (TAP-1 promoter [4]; TAP-deficient cells, IFN-γ compared with TSA): to much higher levels than TSA did
CBP binding to TAP-1 promoter (TAP-1 promoter [5]): increase
